Data reported in patent publication US10334851B2, “Herbicidal isoxazolo[5,4-B]pyridines” (BASF SE, priority 2010, dated 2019).

How the values were obtained:
Format in all cases: in vivo
Setaria faberi = experiment: Greenhouse post-emergence treatment of Setaria faberi (giant foxtail); details: for pest or weed control at 3000 g/ha / pest or weed control at 2000 g/ha: scale 0 to 100, read-out: damage; for damage: scale 0 to 100
From the text: (§1) The seeds of the test plants were sown separately for each species. For the post-emergence treatment, the test plants were first grown to a height of 3 to 15 cm, depending on the plant habit, and only then treated with the active ingredients which had been suspended or emulsified in water. For this purpose, the test plants were either sown directly and grown in the same containers, or they were first grown separately as seedlings and transplanted into the test containers a few days prior to treatment. Depending on the species, the plants were kept at 10-25° C. or 20-35° C. The test period extended over 2 to 4 weeks. During this time, the plants were tended, and their response to the individual treatments was evaluated. Evaluation was carried out using a scale from 0 to 100. 100 means no emergence of the plants, or complete destruction of at least the aerial moieties, and 0 means no damage, or normal course of growth. A good herbicidal activity is given at values of at least 80 and a very good herbicidal activity is given at values of at least 90. The plants used in the greenhouse experiments belonged to the following species: [table]

Abutilon theophrasti = experiment: Greenhouse post-emergence treatment of Abutilon theophrasti (velvetleaf); details: scale 0 (no damage) to 100 (complete destruction); for pest or weed control at 3000 g/ha / pest or weed control at 2000 g/ha: Abutilon theophrasti
From the text: as §1

Chenopodium album = experiment: Greenhouse post-emergence treatment of Chenopodium album (fat-hen); details: application rate 1.0 kg/ha; for damage: scale 0 to 100; for pest or weed control at 1000 g/ha: scale 0 to 100, read-out: damage
From the text: as §1

[1] = test system: Amaranthus retroflexus L.; experiment: Greenhouse post-emergence treatment of Amaranthus retroflexus L. (pigweed); details: application rate 1.0 kg/ha; for damage: scale 0 to 100; for pest or weed control at 1000 g/ha: scale 0 to 100, read-out: damage
From the text: as §1

Work on `O=C(O)c1cc(C2CC2)nc2onc(C3CCCC3)c12` [I.2.14] yielded a pest or weed control at 3000 g/ha (Setaria faberi; application rate 3.0 kg/ha) of 90% and a pest or weed control at 3000 g/ha (Abutilon theophrasti; application rate 3.0 kg/ha) of 100%.

Work on `Cc1ccccc1-c1cc(C(=O)O)c2c(C)noc2n1` [I.5.8] yielded a damage (Setaria faberi; application rate 3.0 kg/ha) of 85%.

Work on `Cc1noc2nc(C3CC3)cc(C(=O)O)c12` [I.2.1] yielded a pest or weed control at 2000 g/ha (Setaria faberi; application rate 2.0 kg/ha) of 100% and a pest or weed control at 2000 g/ha (Abutilon theophrasti; application rate 2.0 kg/ha) of 95%.

In the case of `CC(C)c1noc2nc(-c3ccc(F)cc3)cc(C(=O)O)c12` [I.7.4], the damage (Setaria faberi; application rate 3.0 kg/ha) is reported as 80%.

In the case of `COC(=O)c1cc(C2CC2)nc2onc(C(F)(F)F)c12` [I.4.6], the pest or weed control at 3000 g/ha (Setaria faberi; application rate 3.0 kg/ha) is reported as 80%.

Work on `CC1CC1c1noc2nc(C3CC3)cc(C(=O)O)c12` (stereo not drawn) [I.2.13] yielded a pest or weed control at 2000 g/ha (Setaria faberi; application rate 2.0 kg/ha) of 95% and a pest or weed control at 2000 g/ha (Abutilon theophrasti; application rate 2.0 kg/ha) of 100%.

In the case of `O=C(O)c1cc(C2CC2)nc2onc(C3CC3)c12` [I.2.7], the pest or weed control at 3000 g/ha (Setaria faberi; application rate 3.0 kg/ha) is reported as 100% and the pest or weed control at 3000 g/ha (Abutilon theophrasti; application rate 3.0 kg/ha) is reported as 100%.

`COC(=O)c1cc(C2CC2)nc2onc(-c3cccnc3)c12` [I.4.2] gave a pest or weed control at 3000 g/ha (Setaria faberi; application rate 3.0 kg/ha) of 85%.

`O=C(O)c1cc(C2CC2)nc2onc(-c3ccncc3)c12` [I.2.16] was tested, and the pest or weed control at 3000 g/ha (Setaria faberi; application rate 3.0 kg/ha) was 100% and the pest or weed control at 3000 g/ha (Abutilon theophrasti; application rate 3.0 kg/ha) was 85%.

With `O=C(O)c1cc(C2(F)CC2)nc2onc(C3(F)CC3)c12` the pest or weed control at 3000 g/ha (Setaria faberi; application rate 3.0 kg/ha) was 98%.

Compound `Cc1noc2nc(C3CC3)cc(C(=O)OCC#N)c12` [I.1.6] has a damage (Setaria faberi; application rate 3.0 kg/ha) of 95% and a damage (Abutilon theophrasti; application rate 3.0 kg/ha) of 100%.

With `Cc1noc2nc(C3(F)CC3)cc(C(=O)O)c12` [I.7.51] the pest or weed control at 3000 g/ha (Setaria faberi; application rate 3.0 kg/ha) was 90%.

`CC(C)(C)Cc1noc2nc(C3CC3)cc(C(=O)O)c12` [I.2.2] was tested, and the damage (Setaria faberi; application rate 2.0 kg/ha) was 90% and the damage (Abutilon theophrasti; application rate 2.0 kg/ha) was 100%.

`O=C(O)c1cc(C2CC2)nc2onc(-c3cccnc3)c12` [I.2.15] showed a pest or weed control at 3000 g/ha (Setaria faberi; application rate 3.0 kg/ha) of 100% and a pest or weed control at 3000 g/ha (Abutilon theophrasti; application rate 3.0 kg/ha) of 85%.

`O=C(O)c1cc(C2CC2)nc2onc(-c3ccccc3)c12` [I.2.5] showed a damage (Setaria faberi; application rate 3.0 kg/ha) of 80% and a damage (Abutilon theophrasti; application rate 3.0 kg/ha) of 100%.

With `O=C(O)c1cc(C2CC2)nc2onc(C(F)(F)F)c12` [I.2.10] the pest or weed control at 3000 g/ha (Setaria faberi; application rate 3.0 kg/ha) was 85% and the pest or weed control at 3000 g/ha (Abutilon theophrasti; application rate 3.0 kg/ha) was 90%.

`CC(C)c1noc2nc(C3CC3)cc(C(=O)O)c12` [I.2.6] gave a pest or weed control at 3000 g/ha (Setaria faberi; application rate 3.0 kg/ha) of 95% and a pest or weed control at 3000 g/ha (Abutilon theophrasti; application rate 3.0 kg/ha) of 100%.

In the case of `COc1ccccc1-c1cc(C(=O)O)c2c(C(C)C)noc2n1` [I.7.7], the damage (Setaria faberi; application rate 3.0 kg/ha) is reported as 85%.

`COC(=O)c1cc(C2CC2)nc2onc(-c3cccc(OC)c3)c12` [I.4.19] showed a damage (Setaria faberi; application rate 3.0 kg/ha) of 100%.

With `CCc1cc(C(=O)O)c2c(C3CC3)noc2n1` [I.7.17] the pest or weed control at 3000 g/ha (Setaria faberi; application rate 3.0 kg/ha) was 90% and the pest or weed control at 3000 g/ha (Abutilon theophrasti; application rate 3.0 kg/ha) was 100%.

Compound `CCCc1noc2nc(C3CC3)cc(C(=O)O)c12` [I.2.3] has a damage (Setaria faberi; application rate 3.0 kg/ha) of 85% and a damage (Abutilon theophrasti; application rate 3.0 kg/ha) of 100%.

For `O=C(O)c1cc(C2CC2)nc2onc(-c3ccc(-c4ccccc4)cc3)c12` [I.2.19], the damage (Setaria faberi; application rate 3.0 kg/ha) was 85% and the damage (Abutilon theophrasti; application rate 3.0 kg/ha) was 100%.

Compound `O=C(O)c1cc(C2CC2)nc2onc(CCc3ccccc3)c12` [I.2.11] has a damage (Setaria faberi; application rate 3.0 kg/ha) of 100% and a damage (Abutilon theophrasti; application rate 3.0 kg/ha) of 100%.

With `CC(C)c1ccc(-c2noc3nc(C4CC4)cc(C(=O)O)c23)cc1` [I.2.66] the damage (Chenopodium album) was 100% and the damage [1] was 100%.

`Cc1noc2nc(-c3ccc(OC(F)F)cc3)cc(C(=O)O)c12` [I.5.13] showed a damage (Setaria faberi; application rate 3.0 kg/ha) of 95%.

In the case of `CCCc1noc2nc(C3CC3)cc(C(=O)SC)c12` [I.4.59], the damage (Chenopodium album) is reported as 100% and the damage [1] is reported as 95%.

`CC(C)Cc1noc2nc(C3(F)CC3)cc(C(=O)O)c12` [I.7.68] showed a damage (Chenopodium album) of 100% and a damage [1] of 100%.

Work on `COc1noc2nc(C3CC3)cc(C(=O)O)c12` [I.2.53] yielded a pest or weed control at 1000 g/ha (Chenopodium album) of 100% and a pest or weed control at 1000 g/ha [1] of 100%.

For `Cc1noc2nc(C3CC3)cc(C(=O)SCc3ccccc3)c12` [I.1.79], the damage (Chenopodium album) was 85% and the damage [1] was 98%.

`COC(=O)c1cc(C2CC2)nc2onc(C3CC3C)c12` (stereo not drawn) [I.4.3] was tested, and the pest or weed control at 3000 g/ha (Setaria faberi; application rate 3.0 kg/ha) was 90%.

`CCc1noc2nc(C3CC3)cc(C(=O)O)c12` [I.2.25] showed a pest or weed control at 3000 g/ha (Setaria faberi; application rate 3.0 kg/ha) of 95%.

`O=C(O)c1cc(C2CC2)nc2onc(-c3ccc(OC(F)F)cc3)c12` [I.2.45] was tested, and the damage (Chenopodium album) was 98% and the damage [1] was 98%.

With `CON(C)C(=O)c1cc(C2CC2)nc2onc(C)c12` [I.1.83] the damage (Chenopodium album) was 100% and the damage [1] was 100%.

With `NC(=O)c1cc(C2CC2)nc2onc(C3CC3)c12` [I.4.63] the pest or weed control at 1000 g/ha (Chenopodium album) was 100% and the pest or weed control at 1000 g/ha [1] was 100%.
